Laboratory results as given in US9375450B2, “Vaginal tissue rejuvenation compositions and methods” (priority 2011, dated 2016).

Tests used:
[1] = tested on: ovariectomized (OVX) Sprague-Dawley rats; experiment: Macroscopic measurements (genital hiatus, vaginal length) after 2 weeks vaginal suppositories; type: in vivo, rat; details: vaginal suppositories 2 weeks (20 μM zinc sulfate, 10 nM GW501516, 0.01% estradiol), mean±SD; for genital hiatus (distance between the external urethral meatus and the mid anus): placebo 12.6±1.1; for vaginal length: placebo 14.1±1.1
Method: (§1) Ten to 12-weeks old female ovariectomized (OVX) Sprague-Dawley rats were utilized for the experiments. The animals were acclimatized to the environmental conditions before starting the experiment. The animals were housed individually and were allowed free access to water and rodent food. […] The suppositories were prepared according to the fusion method, using a polypeg suppository base ([…]., USA). […] Using a microwave, the suppository base was melted in a small beaker for 3 min and then transferred and kept into a water bath at a temperature of 55° C. The proper amount of above reagent was added to the liquefied base and meticulously crushed with a smooth rounded-end glass rod for about 20 min to make the solution to be even and clear. A pipette tip was used to suck some amount of solution and push it into a plastic tube with a diameter of 3.5 mm, and the tube was immediately left on the flat surface of an ice bucket. The suppository turned to white in color when it was solid. The moulded suppository was then pushed out of the tube using a round rod. […] After 30 min of cooling at room temperature, the suppositories were stored at 4° C. in a closed chamber until use. They were left to reach room temperature before use. The day after the last treatment the rats were overnight fasted and then sacrificed. Macroscopic measurement (genital hiatus, vaginal length) were taken and the vagina was dissected out carefully to avoid any injury to the vagina. The mid section of the vagina was utilized for histology (H and E stain, Masson's trichrome stain) and immunofluorescence and the rest of the vagina was used for RNA extraction and RT-PCR.

[2] = tested on: rat vaginal Collagen I, Collagen III, Collagen V protein; experiment: Immunofluorescence of vaginal collagen protein expression after 2 weeks vaginal suppositories; type: in vivo; details: OVX rats, vaginal suppositories 2 weeks, mean±SD; for ratio of vaginal Collagen I to Collagen III protein expression: placebo 1.16±0.2; for ratio of vaginal Collagen I to Collagen V protein expression: placebo 1.28±0.3
Method: as §1, with “RT-PCR. Samples were incubated with three different antibodies, collagen I, III and anti-actin or collagen I and V and anti-actin. Frozen tissues samples were cut into sections of 6 μm and fixed for 10 min with acetone, followed by five washes of phosphate-buffered saline (PBS). […] After that, sections were incubated with the secondary antibody for one hour in the dark, at room temperature, followed by five washes of PBS. […] Alexa Fluor 405 Goat Anti-Mouse IgG (1:400) (Invitrogen); Cy3-AffiniPure Goat Anti-Mouse IgM (1:400) (Jackson ImmunoResearch Laboratories, West Grove, Pa.); Alexa Fluor 647 (1;200) phalloidin (Invitrogen). […] Four images were obtained per section. Images were capture with an Orca II-ERG 12 bitt CCD camera in a Zeiss Apotome microscope with a 20× objective. The data was analyzed using Matamorph version 7.7.4 software. Results are represented as mean pixel intensity ratios per square area.” for “RT-PCR.”

[3] = tested on: rat vaginal Col1a1, Col3a1, Col5a1 mRNA; experiment: qRT-PCR of vaginal collagen gene expression after 2 weeks vaginal suppositories; type: in vivo; details: OVX rats, vaginal suppositories 2 weeks, mean±SD; for ratio of vaginal Col1a1 to Col3a1 mRNA expression: placebo 0.78±0.2; for ratio of vaginal Col1a1 to Col5a1 mRNA expression: placebo 4.3±1.9
Source text: Ten to 12-weeks old female ovariectomized (OVX) Sprague-Dawley rats were utilized for the experiments. The animals were acclimatized to the environmental conditions before starting the experiment. The animals were housed individually and were allowed free access to water and rodent food. Two weeks after the ovariectomy rats (n=36) were divided into five groups: control (receiving placebo suppositories, n=8), Zinc (receiving zinc sulfate containing suppositories, n=8), GW (receiving GW501516 containing suppositories, n=8), Zinc with GW (receiving Zinc with GW 501516 containing suppositories, n=8) and Estradiol (receiving estradiol containing suppositories, n=4).
The suppositories were prepared according to the fusion method, using a polypeg suppository base (MEDISCA, N.Y., USA). […] Using a microwave, the suppository base was melted in a small beaker for 3 min and then transferred and kept into a water bath at a temperature of 55° C. The proper amount of above reagent was added to the liquefied base and meticulously crushed with a smooth rounded-end glass rod for about 20 min to make the solution to be even and clear. A pipette tip was used to suck some amount of solution and push it into a plastic tube with a diameter of 3.5 mm, and the tube was immediately left on the flat surface of an ice bucket. The suppository turned to white in color when it was solid. The moulded suppository was then pushed out of the tube using a round rod. The moulded suppository was cut using a razor blade to a length of 1.2 cm each, which was calibrated to equal a volume of 50±5 μl per each suppository. After 30 min of cooling at room temperature, the suppositories were stored at 4° C. in a closed chamber until use. They were left to reach room temperature before use.
Total RNA was isolated from 20 mg of vaginal rat tissue in each experimental rat group using the RNeasy Mini kit (Qiagen) according to the manufacturer's specifications. For each total RNA preparation, DNase digestion was performed to remove contaminating genomic DNA. Total RNA samples from each tissue were quantified and evaluated for RNA integrity by the Agilent Bioanalyzer 2100 (Applied Biosystems, Foster City Calif., USA). Following RNA extraction, cDNA was reverse transcribed from ˜500 ng of each total RNA preparation using the qScript cDNA synthesis kit (Quanta Biosciences, Gaithersburg Md., USA). Finally, cDNA samples were used to perform gene expression analysis by qRT-PCR using SYBR Green technology on the RealPlex EP Mastercycler (Eppendorf, Germany) of five genes with known roles in vaginal tissue reconstruction: Collagen IaI (col 1a1), Collagen IIIaI (col 3a1), Collagen VaI (col 5a1), Elastin (eln), Tensin I (tns-1). Glyceraldehyde-3 Phosphate Dehydrogenase (gapdh) was used as a positive control to normalize the expression of each gene. Each qRT-PCR reaction was run in triplicate using Perfecta SYBR Green Supermix (Quanta Biosciences, Gaithersburg Md., USA) in 25 μL reaction volumes using a final concentration of 300 nM forward and reverse primers. For each of the genes analyzed in this study, primers were designed using Primer-BLAST software (NCBI) and synthesized by IDT Technologies (San Diego, Calif.).

[4] = tested on: ovariectomized (OVX) Sprague-Dawley rats; experiment: Vaginal histology and histomorphometry after 2 weeks vaginal suppositories; type: in vivo, rat; details: vaginal suppositories 2 weeks; for vaginal epithelial thickness / vaginal muscularis thickness / vaginal lamina propria thickness / vaginal thickness (all three layers of the vagina) / lamina propria collagen fiber compactness: mean±SD; for vaginal epithelial thickness: placebo 57±18; for vaginal muscularis thickness: placebo 121±44; for vaginal lamina propria thickness: placebo 179±71; for vaginal thickness (all three layers of the vagina): placebo 358±86; for vaginal epithelial cornification rate: placebo 0%; for lamina propria collagen fiber compactness: scale 0-5 (0=loose, 5=tight), placebo 4.5±0.6
Method: as §1, with “RT-PCR. […] For each animal, a 4 μm-thick paraffin section was cut and stained with haematoxylineosin and with Masson's trichrome stain for morphological examination. […] The cornification was determined by the presence of a keratin layer on the vaginal epithelium. Measurements of the different vaginal layers were performed on the fifth segment of the vagina, which is approximately halfway between the middle region and the portio vaginalis uteri. […] Images were captured with a color digital camera and quantified using ImageJ software was used. […] The thickness of the lamina propria was obtained by deducting the thickness of the epithelium and muscularis from total vaginal thickness.” for “RT-PCR.”

Row | Structure (SMILES) | genital hiatus (distance between the external urethral meatus and the mid anus) [1] [mm] | vaginal length [1] [mm] | ratio of vaginal Collagen I to Collagen III protein expression [2] [relative units] | ratio of vaginal Collagen I to Collagen V protein expression [2] [relative units] | ratio of vaginal Col1a1 to Col3a1 mRNA expression [3] [relative units] | ratio of vaginal Col1a1 to Col5a1 mRNA expression [3] [relative units] | vaginal epithelial thickness [4] [μm] | vaginal muscularis thickness [4] [μm] | vaginal lamina propria thickness [4] [μm] | vaginal thickness (all three layers of the vagina) [4] [μm] | vaginal epithelial cornification rate [4] [%] | lamina propria collagen fiber compactness [4] [relative units]
1 | O.O.O.O.O.O.O.O=S(=O)([O-])[O-].[Zn+2] [zinc sulfate, zinc sulfate heptahydrate] | 14.5±2.5 | 15.6±4.0 | 1.37±0.1 | 1.50±0.4 | 0.95±0.1 | 9.7±2.5 | 79±21 | 155±58 | 242±78 | 477±106 | 87 | 3.5±0.5
2 | Cc1cc(SCc2sc(-c3ccc(C(F)(F)F)cc3)nc2C)ccc1OCC(=O)O [GW501516, 2-[2-methyl-4-([4-methyl-2-[4-(trifluoromethyl)phenyl)-1,3-thiazol-5-yl]methylsulfanyl]phenoxy]acetic acid] | 14.7±1.1 | 15.5±1.0 | 1.20±0.1 | 1.20±0.4 | 1.0±0.2 | 8.8±3.0 | 54±23 | 130±50 | 192±68 | 377±98 | 25 | 4.0±0.5
